Columns and labels:
human EP3 receptor = biological target: T1, human EP3 receptor (Homo sapiens, UniProt P43115); assay: human EP3 calcium mobilisation assay (FLIPR, CHO-K1 cells); assay type: cell-based; conditions: antagonism of PGE2-induced calcium mobilisation, averages of a number of experiments, read-out: functional pKi (converted)
T1 construct: expressed in transfected cells; host or cells: CHO-K1 cells, pCIN vector
T1 sequence (P43115 1-390): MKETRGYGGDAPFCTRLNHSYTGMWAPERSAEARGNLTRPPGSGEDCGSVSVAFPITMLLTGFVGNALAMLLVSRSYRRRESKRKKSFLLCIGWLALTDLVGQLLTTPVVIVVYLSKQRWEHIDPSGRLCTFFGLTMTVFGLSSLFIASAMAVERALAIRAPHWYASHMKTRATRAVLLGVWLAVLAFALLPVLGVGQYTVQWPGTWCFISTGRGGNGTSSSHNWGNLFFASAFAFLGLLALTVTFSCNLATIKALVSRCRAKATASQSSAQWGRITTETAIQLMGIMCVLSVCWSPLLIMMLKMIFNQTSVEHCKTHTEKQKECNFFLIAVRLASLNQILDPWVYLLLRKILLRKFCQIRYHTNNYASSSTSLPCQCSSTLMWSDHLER
Method: Briefly, the antagonist properties of compounds are assessed by their ability to inhibit the mobilisation of intracellular calcium ([Ca^2+]i) in response to activation of EP1 or EP3 receptors by the natural agonist hormone prostaglandin E2 (PGE2). Increasing concentrations of antagonist reduce the amount of calcium that a given concentration of PGE2 can mobilise. The net effect is to displace the PGE2 concentration-effect curve to higher concentrations of PGE2. The amount of calcium produced is assessed using a calcium-sensitive fluorescent dye such as Fluo-4, AM and a suitable instrument such as a Fluorimetric Imaging Plate Reader (FLIPR). Increasing amounts of [Ca^2+]i produced by receptor activation increase the amount of fluorescence produced by the dye and give rise to an increasing signal. The signal may be detected using the FLIPR instrument and the data generated may be analysed with suitable curve-fitting software.
The human EP1 or EP3 calcium mobilisation assay (hereafter referred to as ‘the calcium assay’) utilises Chinese hamster ovary-K1 (CHO-K1) cells into which a stable (pCIN; BioTechniques 20 (1996): 102-110) vector containing either EP1 or EP3 cDNA has previously been transfected. Cells are cultured in suitable flasks containing culture medium such as DMEM:F-12 supplemented with 10% v/v foetal calf serum, 2 mM L-glutamine, 0.25 mg/ml geneticin, 100 μM flurbiprofen and 10 μg/ml puromycin.
For assay, cells are harvested using a proprietary reagent that dislodges cells such as Versene. Cells are re-suspended in a suitable quantity of fresh culture media for introduction into a 384-well plate. Following incubation for 24 hours at 37° C. the culture media is replaced with a medium containing Fluo-4 and the detergent pluronic acid, and a further incubation takes place. Concentrations of compounds are then added to the plate in order to construct concentration-effect curves. This may be performed on the FLIPR in order to assess the agonist properties of the compounds. […]
The data so generated may be analysed by means of a computerised curve-fitting routine. […]

[1] = system: rat model of chronic constriction injury; conditions: Anesthesia and Analgesia 2001, 93, 1012-7; cited from earlier work
[2] = system: rodent model of post-operative pain; conditions: Anesthesia and Analgesia 2001, 92, 233-238; cited from earlier work

Row | Ki (human EP3 receptor) | SMILES | hyperalgesia and allodynia [1] | mechanical hyperalgesia [2]
1 | ≥ 1 µM | CC(C)Cn1cc(-c2nc(C(=O)O)cs2)c2cc(Cl)ccc21 [Example 7, 2-[5-Chloro-1-(2-methylpropyl)-1H-indol-3-yl]-1,3-thiazole-4-carboxylic acid] | – | –
2 | ≥ 1 µM | CC(C)Cn1cc(-c2nc(C(=O)O)co2)c2cc(Cl)ccc21 [Example 8, 2-[5-Chloro-1-(2-methylpropyl)-1H-indol-3-yl]-1,3-oxazole-4-carboxylic acid] | – | –
3 | > 0.316 µM | Cc1ccc2c(c1)c(-c1nc(C(=O)NS(=O)(=O)c3ccccc3)co1)cn2CC(C)C [Example 10, 2-[5-Methyl-1-(2-methylpropyl)-1H-indol-3-yl]-N-(phenylsulfonyl)-1,3-oxazole-4-carboxamide] | – | –
4 | – | Cc1cc(Cl)ccc1S(=O)(=O)NC[C@H]1C2CCC(CC2)[C@@H]1/C=C\CCCC(=O)O [ONO-8711] | reduces hyperalgesia and allodynia | inhibits mechanical hyperalgesia

From US20090281152A1, “Indole Compounds Having Affinity to the EP1 Receptor” (priority 2006, published 2009)
